The assay concerns contraction of guinea pig ileum by substance P. Kind of assay: Antagonism of the in vitro contraction of guinea pig ileum by substance P. Type of assay: cell-based. Particulars: for substance P antagonism (conclusion of the tests): conclusion from NK1 binding and guinea pig ileum tests. The method, then:
b). Model of antagonism of the in vitro contraction of guinea pig ileum by substance P (10 nM) according to the technique described by Dion et al., Life Sci. 41: 2269-78 (1987) and Patacchini et al., Eur. J. Pharmacol. 215: 93-8 (1992).

In general, inhibition refers to the drop in the measured response relative to a control, in per cent.

Regarding `Cc1cc(C)cc(CNCCNCc2cc(C)cc(C)c2)c1` [Example 1, N,N'-bis(3,5-dimethylbenzyl)ethylenediamine], the “substance P antagonism (conclusion of the tests)” value is listed as “substance P antagonists”. Also, the inhibition at 1 µM (Cavia porcellus, 1 μM, substance P 10 nM) is -24%. Besides, the inhibition at 10 µM (Cavia porcellus, 10 μM, substance P 10 nM) is -92%. Further, under “Cavia porcellus, 100 μM, substance P 10 nM”, the inhibition at 100 µM was -100%.

Consider `COc1cc(CNCCNCc2cc(OC)cc(OC)c2)cc(OC)c1` [Example 2, N,N'-bis(3,5-dimethoxybenzyl)ethylenediamine], for which the “substance P antagonism (conclusion of the tests)” value is on record as “substance P antagonists”.

Values taken from patent US5714155A, “Ethylenediamine derivative in a cosmetic or dermatological composition, and composition containing in particular a product having an irritant side effect” (Societe L'oreal S.A., priority 1994, dated 1998).
